Assay results as given in ChEMBL document CHEMBL1158967, “A cytotoxic and antifungal 1,4-naphthoquinone and related compounds from a New Zealand brown algae, Landsburgia quercifolia” (J Nat Prod, 1991).
Converted amounts (≈) assume the structure as drawn. The source made the active and inactive calls. The calls are words filed in the database; no cut-off is given here.

Assays:
P388 = experiment: Cytotoxicity against mouse P388 cells; type: functional, cell-based
Poliovirus 1 = experiment: Antiviral activity against Poliovirus type 1 in african green monkey BSC1 cells assessed as inhibition of virus-induced cytopathic effect; type: functional, organism-based; settings: BSC-1
Escherichia coli = experiment: Antimicrobial activity against Escherichia coli at 60 ug/disk; type: functional, organism-based
Human alphaherpesvirus 1 = experiment: Antiviral activity against HSV1 in african green monkey BSC1 cells assessed as inhibition of virus-induced cytopathic effect; type: functional, organism-based; settings: BSC-1
[1] = system: Trichophyton mentagrophytes; experiment: Antimicrobial activity against Trichophyton mentagrophytes at 60 ug/disk; type: functional, organism-based
Pseudomonas aeruginosa = experiment: Antimicrobial activity against Pseudomonas aeruginosa at 60 ug/disk; type: functional, organism-based
Candida albicans = experiment: Antimicrobial activity against Candida albicans at 60 ug/disk; type: functional, organism-based
Bacillus subtilis = experiment: Antimicrobial activity against Bacillus subtilis at 60 ug/disk; type: functional, organism-based
[2] = Cytotoxicity against african green monkey BSC1 cells at 10 ug; type: cell-based; settings: chlorocebus aethiops, bsc-1

Row | SMILES | IC50 (P388) [µg/mL] | Activity (Poliovirus 1) | Activity (Escherichia coli) | Activity (Human alphaherpesvirus 1) | Activity [1] | Activity (Pseudomonas aeruginosa) | Activity (Candida albicans) | Activity (Bacillus subtilis) | Activity [2]
1 | COc1cc(CC=C(C)C)c(OC)c2ccccc12 | > 25 |  |  |  |  |  |  |  | 
2 | CC(C)=CCC12OC1C(=O)c1ccccc1C2=O (configuration not stated) | 0.8 (≈ 3.3 µM) | inactive | inactive | inactive | Active | inactive | Active | Active | Active
3 | CC(C)=CCC1(CC=C(C)C)CC(=O)c2ccccc2C1=O | > 12.5 |  |  |  |  |  |  |  | 
4 | COC1(OC)c2ccccc2C(=O)C2(CC=C(C)C)OC21 (racemic) | > 12.5 |  |  |  |  |  |  |  | 
5 | CC(C)=CCC1=CC(=O)c2ccccc2C1=O [DEOXYLAPACHOL] | 0.6 (≈ 2.65 µM) | inactive | inactive | inactive | Active | inactive | Active | Active | Active
6 | CC(C)=CCC1=C(O)C(=O)c2ccccc2C1=O [LAPACHOL] | 0.2 (≈ 0.826 µM) |  |  |  |  |  |  |  | 
